Test results: patent publication USRE43244E1, “Phenylethylamines and condensed rings variants as prodrugs of catecholamines, and their use” (priority 2001, dated 2012)
Counter-ions that a name gives are not always drawn.

Experiments:
Dopa accumulation = conditions: normal animals, after NSD1015; cited from earlier work
D3 dopamine receptor = D3 dopamine receptor (Rattus norvegicus, UniProt P19020); conditions: among screened classical and atypical neuroleptics; cited from earlier work
[1] = system: DA metabolites DOPAC and HVA; conditions: no NSD1015 treatment; cited from earlier work
rodents = conditions: cited from earlier work; for Dopaminergic stereotypic behavioral effects (sniffing, rearing): gross behavioral observations, certain dosages, rodents; for Locomotor activity: photocell motility meters
rats [2] = assay: Behavioral testing in rats of GMC6650; type: in vivo, rat
Description: Behavioral Testing in Rats of Compound GMC6650 (Example 6)
One rat, weighing about 350 g, was injected SC in the neck with 1 μmol/kg of GMC6650. Another rat, weighing about 350 g, was injected PO with the same dose. The drug (3.4 mg) was initially dissolved in: ethanol (50 μL), 1 M acetic acid (2 drops), and water (1.4 mL), corresponding to 15 μmol per 1.5 mL, which means a concentration of 10 μmol/mL. By first diluting that solution 10 times and injecting 0.35 mL, the given dose will be 1 μmol/kgμmol/kg. This goes for both of rats.
Stereotypy was intense and was registered for several hours by visual inspection. […] The next morning, the SC rat was still active, while the PO rat was resting. Duration of action was thus ≧10 h for both sc and po administration of 1 μmol/kg.

rats [3] = conditions: cited from earlier work
DA receptors = conditions: cited from earlier work
[4] = 1 μmol/kg, SC or PO (same pattern in both rats)

D3 dopamine receptor, sequence (P19020 whole entry): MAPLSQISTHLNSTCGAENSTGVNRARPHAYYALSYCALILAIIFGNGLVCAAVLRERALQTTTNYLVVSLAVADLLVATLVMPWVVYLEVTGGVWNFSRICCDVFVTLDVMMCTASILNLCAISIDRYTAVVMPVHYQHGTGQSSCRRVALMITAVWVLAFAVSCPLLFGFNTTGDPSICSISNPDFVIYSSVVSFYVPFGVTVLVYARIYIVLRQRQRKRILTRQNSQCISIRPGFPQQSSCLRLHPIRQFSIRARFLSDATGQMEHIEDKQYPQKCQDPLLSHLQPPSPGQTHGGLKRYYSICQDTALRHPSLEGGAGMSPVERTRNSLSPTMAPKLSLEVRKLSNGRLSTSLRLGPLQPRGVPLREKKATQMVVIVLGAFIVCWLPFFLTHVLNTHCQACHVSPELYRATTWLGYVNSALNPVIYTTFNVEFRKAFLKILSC

Compound: CCN(CC)CCC1=CC(=O)CCC1 (as salt: hydrochloride)
- melting point: 148 to 149 °C

Compound: CCCN(CCC1=CC(=O)CCC1)CCc1ccccc1 (as salt: hydrochloride)
- melting point: 110 to 112 °C

Compound: CCCN(CCC)[C@@H]1CCc2c(OC)cccc2[C@@H]1C (relative stereo) [(+)-UH232, (+)-cis-1S,2R-5-methoxy-1-methyl-2-(N,N-di-n-propylamino)tetralin]
- Dopa accumulation (Dopa accumulation): raise the Dopa accumulation
- Preference for the D3 site (D3 dopamine receptor): highest preference for the D3 site
- Levels of DA metabolites DOPAC and HVA [1]: raise the levels
- Dopaminergic stereotypic behavioral effects (sniffing, rearing) (rodents): weak
- Locomotor activity (rodents): increase the locomotor activity

Compound: CCCN1CCC[C@@H]2CC3=C(CCCC3=O)C[C@H]21 (relative stereo) [GMC6650, 1-Propyl-trans-2,3,4,4a,5,7,8,9,10,10a-decahydrobenzo[g]quinolin-6-one]
- Activity the next morning (rats [2]; 1 μmol/kg PO): resting
- Activity the next morning (rats [2]; 1 μmol/kg SC): still active
- Duration of action (rats [2]; 1 μmol/kg po): ≥ 10 h
- Duration of action (rats [2]; 1 μmol/kg sc): ≥ 10 h
- Stereotypy after 10 hours (rats [2]; 1 μmol/kg, SC and PO rat, 10 hours after dosing): still showing signs of stereotypy
- Time until clear signs of stereotypy (rats [2]; [4]): 30 min
- Time until obvious dopaminergic effects (chewing, sniffing, licking, penile grooming, grooming) (rats [2]; [4]): 15 min
- Time until rats became sedated, closing or partly closing their eyes (rats [2]; [4]): 10 min
- Stereotypy, visual inspection (rats [2]; 1 μmol/kg, SC or PO, registered for several hours): intense

Compound: CCCN1CCCC(C2=CC(=O)CCC2)C1 (stereo not shown) (as salt: hydrochloride)
- melting point: 184 to 185 °C

Compound: CCCN[C@@H]1CCc2c(OC)cccc2[C@@H]1C (relative stereo) [(+)-AJ76, (+)-cis-1S,2R-5-methoxy-1-methyl-2-(N-n-propylamino)tetralin]
- Dopa accumulation (Dopa accumulation): raise the Dopa accumulation
- Preference for the D3 site (D3 dopamine receptor): highest preference for the D3 site
- Levels of DA metabolites DOPAC and HVA [1]: raise the levels
- Dopaminergic stereotypic behavioral effects (sniffing, rearing) (rodents): weak
- Locomotor activity (rodents): increase the locomotor activity

Compound: CCCN(CCC)CCC1=CC(=O)CCC1 (as salt: hydrochloride)
- melting point: 95 to 97 °C

Compound: CCCN(CCC)C1CCC2=C(CCCC2=O)C1 (racemic) [(±)-5-keto-DPATT, (±)-5-keto-2-N,N-di-n-propylamino-tetrahydrotetralin]
- Dopaminergic effects in vivo (rats [3]): does possess dopaminergic effects
- Affinity to DA receptors (in vitro binding) (DA receptors): no affinity
